Measured values taken from PMC3813431 (Aquatic toxicology (Amsterdam, Netherlands), 2013).
Entries after “also recorded” stand apart in the source; their conditions may differ. Read-outs that look alike come from different tables or passages of the source. Marks after values point to notes of the source that are not given here.

Legend:
[1] = molecular target: ryanodine receptor, isoform 1 (RyR1) (Oncorhynchus mykiss, UniProt A0A8C7UX14); assay type: binding, rainbow trout (Oncorhynchus mykiss); details: for Comparison (Ratio): Fish RPF compared to Mammal RPF; for Log-Probit Slope / Bmax / Bmax (pmol/mg): Mean ± SEM; for Bmax / Bmax (pmol/mg): maximal level of [3H]Ry binding at saturation; for Fish RPF: relative potency factor, Q20 relative to PCB 95; for activity toward RyR1: rainbow trout preparation
RyR1 [2] = assay: Mammalian RyR1 [3H]ryanodine binding; parameters: species or system rabbit; details: relative potency factor, EC2X relative to PCB 95; from literature EC2X values
RyR1 [3] = details: estimated from QSAR; ref Rayne and Forest 2010; cited from earlier work
RyR1 [4] = details: ref Pessah et al. 2006; cited from earlier work
[5] = linear regression of log-probit plot, (−) inactive
[6] = sigmoidal fit of enhanced [3H]Ry binding, PCB 0–20 μM, (−) inactive

Chain of ryanodine receptor, isoform 1 (RyR1) (A0A8C7UX14 1-5031): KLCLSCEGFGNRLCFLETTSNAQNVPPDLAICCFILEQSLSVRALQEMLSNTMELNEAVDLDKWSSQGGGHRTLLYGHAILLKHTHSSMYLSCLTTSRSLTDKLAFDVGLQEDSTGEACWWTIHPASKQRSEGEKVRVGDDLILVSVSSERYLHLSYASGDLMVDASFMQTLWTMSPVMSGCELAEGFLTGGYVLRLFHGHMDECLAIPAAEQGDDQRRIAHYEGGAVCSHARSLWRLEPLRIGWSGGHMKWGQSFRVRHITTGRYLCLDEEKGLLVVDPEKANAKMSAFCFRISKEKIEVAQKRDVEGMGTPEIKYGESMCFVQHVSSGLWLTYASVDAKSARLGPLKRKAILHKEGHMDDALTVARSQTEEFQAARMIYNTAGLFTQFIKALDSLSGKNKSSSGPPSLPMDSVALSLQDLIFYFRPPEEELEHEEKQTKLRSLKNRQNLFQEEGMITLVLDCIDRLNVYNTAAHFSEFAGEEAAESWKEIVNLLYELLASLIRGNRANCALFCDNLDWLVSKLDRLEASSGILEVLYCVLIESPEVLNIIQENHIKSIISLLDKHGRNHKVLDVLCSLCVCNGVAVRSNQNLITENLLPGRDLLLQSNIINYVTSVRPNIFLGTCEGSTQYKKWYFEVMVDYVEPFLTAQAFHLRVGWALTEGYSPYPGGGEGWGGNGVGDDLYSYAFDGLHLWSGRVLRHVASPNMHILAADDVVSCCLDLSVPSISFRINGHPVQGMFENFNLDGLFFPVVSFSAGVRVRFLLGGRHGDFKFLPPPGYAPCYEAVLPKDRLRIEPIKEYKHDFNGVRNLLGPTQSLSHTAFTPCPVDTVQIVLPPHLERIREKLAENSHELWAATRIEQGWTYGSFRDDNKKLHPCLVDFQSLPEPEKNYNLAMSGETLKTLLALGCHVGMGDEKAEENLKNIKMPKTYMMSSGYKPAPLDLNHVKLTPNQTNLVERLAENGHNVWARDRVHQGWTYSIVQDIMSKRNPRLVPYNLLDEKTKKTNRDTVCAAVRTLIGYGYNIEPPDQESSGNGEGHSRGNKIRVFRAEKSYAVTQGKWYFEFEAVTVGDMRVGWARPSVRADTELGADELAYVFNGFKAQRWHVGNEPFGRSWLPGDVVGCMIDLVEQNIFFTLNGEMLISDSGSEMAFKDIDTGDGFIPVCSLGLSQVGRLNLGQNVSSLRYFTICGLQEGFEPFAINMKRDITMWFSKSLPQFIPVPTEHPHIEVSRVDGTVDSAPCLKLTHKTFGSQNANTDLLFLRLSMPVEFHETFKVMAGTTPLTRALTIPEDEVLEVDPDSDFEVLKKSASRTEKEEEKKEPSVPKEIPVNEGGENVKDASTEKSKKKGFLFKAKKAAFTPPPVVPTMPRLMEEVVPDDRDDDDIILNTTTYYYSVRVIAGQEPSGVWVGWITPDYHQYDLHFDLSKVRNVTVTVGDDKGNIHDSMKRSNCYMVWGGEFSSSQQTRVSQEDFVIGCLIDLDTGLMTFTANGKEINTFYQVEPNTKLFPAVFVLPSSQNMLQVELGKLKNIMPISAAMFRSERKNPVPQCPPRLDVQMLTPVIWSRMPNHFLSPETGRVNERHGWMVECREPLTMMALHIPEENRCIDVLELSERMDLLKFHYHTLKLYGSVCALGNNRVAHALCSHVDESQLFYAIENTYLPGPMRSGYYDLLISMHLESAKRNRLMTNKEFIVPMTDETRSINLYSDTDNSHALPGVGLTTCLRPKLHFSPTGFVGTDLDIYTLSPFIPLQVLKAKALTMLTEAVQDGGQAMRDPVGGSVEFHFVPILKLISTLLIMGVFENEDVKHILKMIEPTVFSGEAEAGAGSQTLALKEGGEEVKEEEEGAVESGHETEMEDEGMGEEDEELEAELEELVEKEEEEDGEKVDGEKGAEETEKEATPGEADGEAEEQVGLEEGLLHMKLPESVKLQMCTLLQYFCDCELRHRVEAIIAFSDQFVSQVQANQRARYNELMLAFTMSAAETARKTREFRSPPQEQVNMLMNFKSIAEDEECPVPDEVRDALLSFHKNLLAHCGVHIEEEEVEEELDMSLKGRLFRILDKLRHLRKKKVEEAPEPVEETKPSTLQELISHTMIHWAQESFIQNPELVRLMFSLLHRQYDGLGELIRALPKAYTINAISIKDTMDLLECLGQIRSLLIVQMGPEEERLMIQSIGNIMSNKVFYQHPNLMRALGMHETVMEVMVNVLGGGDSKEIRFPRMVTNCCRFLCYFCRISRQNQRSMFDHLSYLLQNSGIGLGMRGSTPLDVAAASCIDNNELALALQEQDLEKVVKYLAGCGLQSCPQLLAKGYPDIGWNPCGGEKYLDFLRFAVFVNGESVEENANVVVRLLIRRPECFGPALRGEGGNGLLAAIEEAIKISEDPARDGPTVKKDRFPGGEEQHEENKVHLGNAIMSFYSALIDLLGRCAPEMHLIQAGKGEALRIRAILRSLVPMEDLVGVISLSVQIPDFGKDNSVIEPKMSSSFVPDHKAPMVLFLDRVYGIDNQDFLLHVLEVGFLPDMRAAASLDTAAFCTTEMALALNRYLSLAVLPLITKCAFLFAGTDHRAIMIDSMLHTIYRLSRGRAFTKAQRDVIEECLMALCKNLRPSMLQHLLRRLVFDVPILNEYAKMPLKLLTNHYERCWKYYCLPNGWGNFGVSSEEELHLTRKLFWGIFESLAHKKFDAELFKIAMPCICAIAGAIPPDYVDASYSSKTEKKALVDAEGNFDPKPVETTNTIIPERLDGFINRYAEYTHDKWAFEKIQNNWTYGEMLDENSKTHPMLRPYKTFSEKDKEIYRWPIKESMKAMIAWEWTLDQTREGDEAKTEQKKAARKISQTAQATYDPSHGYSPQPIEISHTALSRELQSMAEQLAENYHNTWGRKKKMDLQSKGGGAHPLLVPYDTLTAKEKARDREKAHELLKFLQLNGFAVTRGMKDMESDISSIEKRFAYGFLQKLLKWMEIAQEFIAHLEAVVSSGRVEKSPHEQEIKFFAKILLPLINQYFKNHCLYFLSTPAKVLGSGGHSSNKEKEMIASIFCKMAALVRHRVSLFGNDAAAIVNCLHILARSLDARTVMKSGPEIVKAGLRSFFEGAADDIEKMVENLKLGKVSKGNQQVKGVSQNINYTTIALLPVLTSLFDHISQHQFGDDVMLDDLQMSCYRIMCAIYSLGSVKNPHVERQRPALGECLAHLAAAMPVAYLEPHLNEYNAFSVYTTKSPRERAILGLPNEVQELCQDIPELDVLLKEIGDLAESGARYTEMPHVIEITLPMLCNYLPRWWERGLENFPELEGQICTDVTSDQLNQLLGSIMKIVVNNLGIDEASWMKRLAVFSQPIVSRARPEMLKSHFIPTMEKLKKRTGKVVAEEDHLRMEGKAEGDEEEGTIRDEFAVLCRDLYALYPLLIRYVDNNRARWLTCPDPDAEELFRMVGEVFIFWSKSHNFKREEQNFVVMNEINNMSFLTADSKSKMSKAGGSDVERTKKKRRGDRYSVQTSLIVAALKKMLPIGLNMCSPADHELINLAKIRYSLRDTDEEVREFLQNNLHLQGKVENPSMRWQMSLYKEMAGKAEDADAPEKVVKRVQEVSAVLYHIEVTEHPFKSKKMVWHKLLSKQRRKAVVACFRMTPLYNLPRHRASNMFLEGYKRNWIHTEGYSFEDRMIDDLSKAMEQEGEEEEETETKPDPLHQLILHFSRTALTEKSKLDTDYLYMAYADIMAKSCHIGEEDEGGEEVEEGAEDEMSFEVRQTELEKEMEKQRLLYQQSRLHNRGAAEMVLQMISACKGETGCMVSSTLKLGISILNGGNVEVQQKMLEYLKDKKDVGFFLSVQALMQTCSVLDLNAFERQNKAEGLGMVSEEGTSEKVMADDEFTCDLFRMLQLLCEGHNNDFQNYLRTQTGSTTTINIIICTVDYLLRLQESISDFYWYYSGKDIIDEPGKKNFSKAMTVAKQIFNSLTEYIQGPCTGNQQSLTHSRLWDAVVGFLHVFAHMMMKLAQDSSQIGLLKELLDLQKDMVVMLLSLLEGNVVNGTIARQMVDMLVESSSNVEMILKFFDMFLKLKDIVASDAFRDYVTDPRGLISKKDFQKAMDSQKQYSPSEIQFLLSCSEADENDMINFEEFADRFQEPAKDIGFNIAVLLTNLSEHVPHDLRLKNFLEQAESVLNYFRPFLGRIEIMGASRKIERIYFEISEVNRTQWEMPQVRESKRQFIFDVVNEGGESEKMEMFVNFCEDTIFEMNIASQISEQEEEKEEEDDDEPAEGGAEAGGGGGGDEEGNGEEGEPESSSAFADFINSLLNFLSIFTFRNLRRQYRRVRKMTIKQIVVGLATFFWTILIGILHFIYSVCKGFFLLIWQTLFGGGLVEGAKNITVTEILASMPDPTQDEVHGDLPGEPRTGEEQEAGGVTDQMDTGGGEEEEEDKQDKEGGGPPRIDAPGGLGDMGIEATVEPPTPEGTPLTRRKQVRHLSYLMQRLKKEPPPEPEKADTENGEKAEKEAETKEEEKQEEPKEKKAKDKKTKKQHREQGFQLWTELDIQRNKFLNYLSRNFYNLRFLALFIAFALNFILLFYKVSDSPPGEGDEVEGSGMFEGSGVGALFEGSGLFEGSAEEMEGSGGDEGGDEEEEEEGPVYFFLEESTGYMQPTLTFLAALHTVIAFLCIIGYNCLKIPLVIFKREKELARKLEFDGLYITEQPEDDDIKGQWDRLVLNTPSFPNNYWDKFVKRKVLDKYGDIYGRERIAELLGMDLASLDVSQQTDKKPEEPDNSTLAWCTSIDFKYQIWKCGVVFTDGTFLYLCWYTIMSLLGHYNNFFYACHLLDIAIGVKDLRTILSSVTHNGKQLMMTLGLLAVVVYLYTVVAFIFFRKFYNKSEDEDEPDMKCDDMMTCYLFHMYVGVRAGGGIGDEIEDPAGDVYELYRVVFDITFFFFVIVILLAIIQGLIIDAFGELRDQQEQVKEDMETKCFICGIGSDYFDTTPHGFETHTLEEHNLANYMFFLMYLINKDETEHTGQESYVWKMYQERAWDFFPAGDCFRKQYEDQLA

SMILES | EC50 ([1]; single compound) [µM] | Mammal RPF (RyR1 [2]) | Comparison (Ratio) [1] | Log-Probit Slope [1, 5] | Bmax ([1]; (−) inactive) [pmol/mg] | Fish RPF ([1]; (−) inactive) | EC50 [1, 6] [µM] | Mammal EC2X (μM) (RyR1 [3]) | Bmax (pmol/mg) ([1]; (−) inactive) | activity toward RyR1 [1] | Mammal EC2X (RyR1 [4]) [µM] | activity toward the RyR1 in mammals (RyR1 [4]) | receptor activity, % of baseline ([1]; at 20 μM (data not shown)) | Log-Probit Slope ([1]; parameter determined using activating concentrations only) | EC20 ([1]; read-out: Fish Normalized Q20 (μM)) [µM] | Emax ([1]; read-out: Maximum Response (% of Control)) [%]
Brc1ccc(Oc2cc(Br)ccc2Br)c(Br)c1 [PBDE49] | 3.48 |  |  |  |  |  |  |  |  |  |  |  |  |  |  | 
Clc1cccc(-c2cccc(Cl)c2Cl)c1 [PCB 20] |  | 0.11 | 0.05 | 2.83 ± 0.10 | 0.34 ± 0.02 | 0.01 | 1.8 | 2 ^c μM |  |  |  |  |  |  |  | 
Clc1ccc(-c2ccc(Cl)cc2Cl)cc1 [PCB 28] |  | 0.04 |  |  |  |  | > 20 | 5 ^c μM | - | inactive |  |  |  |  |  | 
Clc1ccc(Cl)c(-c2cccc(Cl)c2Cl)c1 [PCB 44] |  | 0.28 | 0.29 | 4.20 ± 0.10 | 0.50 ± 0.03 | 0.08 | 4.5 | 0.8 ^c μM |  |  |  |  |  |  |  | 
Clc1ccc(Cl)c(-c2cc(Cl)ccc2Cl)c1 [PCB 52] |  | 0.45 | 0.69 | 2.66 ± 0.09 | 0.77 ± 0.05 | 0.31 | 2.94 |  |  |  | 0.49 |  |  |  |  | 
Clc1ccc(-c2ccc(Cl)c(Cl)c2)c(Cl)c1 [PCB 66] |  | 0.09 | 0.44 | 2.93 ± 0.00 | 0.42 ± 0.02 | 0.04 | 1.16 |  |  |  | 2.38 |  |  |  |  | 
Clc1ccc(-c2ccc(Cl)c(Cl)c2)cc1Cl [PCB 77] |  | 0.04 |  |  |  |  | > 20 |  | - | negligible impact; also recorded: inactive | 5.00 |  |  |  |  | 
Clc1ccc(Cl)c(-c2c(Cl)ccc(Cl)c2Cl)c1 [PCB 95] |  | 1.00 | 1.00 | 2.15 ± 0.05 | 0.95 ± 0.04 | 1.00 | 1.06 |  |  |  | 0.22 |  |  |  |  | 
Clc1ccc(-c2cc(Cl)c(Cl)cc2Cl)c(Cl)c1 [PCB 99] |  | 0.08 | 0.35 | 2.30 ± 0.05 | 0.61 ± 0.03 | 0.03 | 3.59 |  |  |  | 2.80 |  |  |  |  | 
Clc1ccc(Cl)c(-c2cc(Cl)c(Cl)cc2Cl)c1 [PCB 101] |  | 0.26 | 1.64 | 1.83 ± 0.04 | 0.64 ± 0.04 | 0.42 | 1.98 |  |  |  | 0.86 |  |  |  |  | 
Clc1ccc(-c2c(Cl)ccc(Cl)c2Cl)cc1Cl [PCB 110] |  | 0.19 |  | 2.60 ± 0.01 | 0.48 ± 0.03 |  | 1.08 |  |  |  | 1.13 |  |  |  |  | 
Clc1ccc(-c2cc(Cl)c(Cl)c(Cl)c2)cc1Cl [PCB 126] |  |  |  |  |  |  |  |  |  |  |  | inactive |  |  |  | 
Clc1ccc(-c2c(Cl)ccc(Cl)c2Cl)c(Cl)c1Cl [PCB 132] |  | 0.24 | 0.10 |  | 0.46 ± 0.02 | 0.02 | 1.32 |  |  |  | 0.91 |  | 88 % of baseline | 1.70 ± 0.04 ^a |  | 
Clc1ccc(Cl)c(-c2c(Cl)ccc(Cl)c2Cl)c1Cl [PCB 136] |  | 0.96 | 0.63 | 3.16 ± 0.14 | 0.96 ± 0.04 | 0.60 | 1.3 |  |  |  | 0.23 |  |  |  |  | 
Clc1cc(Cl)c(-c2c(Cl)ccc(Cl)c2Cl)cc1Cl [PCB 149] |  | 0.67 | 1.45 | 3.40 ± 0.08 | 0.76 ± 0.04 | 0.96 | 0.81 |  |  |  | 0.33 |  |  |  |  | 
Clc1ccc(Cl)c(-c2c(Cl)c(Cl)cc(Cl)c2Cl)c1 [PCB 151] |  | 0.44 | 0.45 | 1.91 ± 0.04 | 0.77 ± 0.04 | 0.20 | 2.76 |  |  |  | 0.50 |  |  |  |  | 
Clc1cc(Cl)c(-c2cc(Cl)c(Cl)cc2Cl)cc1Cl [PCB 153] |  | 0.18 | 0.41 | 2.25 ± 0.05 | 0.54 ± 0.02 | 0.07 | 5.75 |  |  |  | 1.21 |  |  |  |  | 
Clc1ccc(-c2cc(Cl)c(Cl)c(Cl)c2Cl)c(Cl)c1Cl [PCB 170] |  | 0.30 |  |  |  |  | > 20 |  | - | inactive | 0.73 |  |  |  |  | 
Clc1cc(Cl)c(-c2cc(Cl)c(Cl)c(Cl)c2Cl)cc1Cl [PCB 180] |  | 0.23 | 0.17 | 1.84 ± 0.06 | 0.40 ± 0.03 |  |  |  |  |  | 0.96 |  |  |  | 11.2 | 132 ± 9.87
Clc1cc(Cl)c(-c2c(Cl)cc(Cl)c(Cl)c2Cl)cc1Cl [PCB 183] |  | 0.40 | 0.16 | 1.58 ± 0.09 | 0.42 ± 0.03 | 0.06 | 1.82 |  |  |  | 0.55 |  |  |  |  | 
Clc1cc(Cl)c(-c2c(Cl)c(Cl)cc(Cl)c2Cl)cc1Cl [PCB 187] |  | 0.38 | 0.16 | 3.05 ± 0.07 | 0.45 ± 0.02 | 0.06 | 1.3 |  |  |  | 0.58 |  |  |  |  | 
Clc1cc(-c2cc(Cl)c(Cl)c(Cl)c2Cl)c(Cl)c(Cl)c1Cl [PCB 194] |  | 0.44 | 0.09 | 8.94 ± 0.34 | 0.36 ± 0.02 | 0.04 | 1.27 | 0.5 ^c μM |  |  |  |  |  |  |  | 
